Source: US9670227B2, “Thienopyrimidine derivatives, a process for their preparation and pharmaceutical compositions containing them” (LES LABORATOIRES SERVIER, priority 2013, dated 2017)
Like-named read-outs stand apart in the source and are kept apart here.

Tests used:
[1] = system: AMO-1 multiple myeloma cells; experiment: Quantification of the cleaved form of PARP in vivo (MSD ELISA, tumour lysates); design: species or system mice (SCID strain); settings: activation factor: cleaved PARP in treated mice / control mice, AMO-1 xenograft in SCID mice, intraveinous or oral routes
Method: The ability of the compounds of the invention to induce apoptosis, by measuring cleaved PARP levels, is evaluated in a xenograft model of AMO-1 multiple myeloma cells. 1.10^7 AMO-1 cells are grafted sub-cutaneously into immunosuppressed mice (SCID strain). 12 to 14 days after the graft, the animals are treated by intraveinous or oral routes with the various compounds. After treatment, the tumour masses are recovered and lysed, and the cleaved form of PARP is quantified in the tumour lysates.
The quantification is carried out using the “Meso Scale Discovery (MSD) ELISA platform” test, which specifically assays the cleaved form of PARP. It is expressed in the form of an activation factor corresponding to the ratio between the quantity of cleaved PARP in the treated mice divided by the quantity of cleaved PARP in the control mice.

Mcl-1 protein = Mcl-1 protein (UniProtKB primary accession number: Q07820) (Homo sapiens, UniProt Q07820); experiment: Inhibition of Mcl-1 by fluorescence polarisation, Method 1; type: binding; settings: for percentage fluorescence polarisation inhibition, Mcl-1 FP: partial inhibitors, @ 10 uM test compound; for IC50: read-out: IC50 (M) Mcl-1 FP
Procedure, shortened: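 FP readout of relative binding potency. Mcl-1 5 nM final, fluorescein-labelled ligand 1 nM final; buffer 10 mM HEPES, 150 mM NaCl, 0.05% Tween 20, pH 7.4; 11-pt dilution series, 5% DMSO final.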

[2] = system: H929 multiple myeloma tumour line; experiment: In vitro cytotoxicity, Microculture Tetrazolium Assay; type: cell-based; settings: H929 cells, 48 hours exposure, MTT, read-out: IC50 (μM) MTT H929
Method: The cytotoxicity studies were carried out on the H929 multiple myeloma tumour line.
The cells are distributed onto microplates and exposed to the test compounds for 48 hours.

[3] = fluorescence polarisation, Method 1, or Method 2
[4] = fluorescence polarisation test, Method 2 values are underlined in the patent (underlining not visible here)

Mcl-1 protein, sequence (Q07820 whole entry): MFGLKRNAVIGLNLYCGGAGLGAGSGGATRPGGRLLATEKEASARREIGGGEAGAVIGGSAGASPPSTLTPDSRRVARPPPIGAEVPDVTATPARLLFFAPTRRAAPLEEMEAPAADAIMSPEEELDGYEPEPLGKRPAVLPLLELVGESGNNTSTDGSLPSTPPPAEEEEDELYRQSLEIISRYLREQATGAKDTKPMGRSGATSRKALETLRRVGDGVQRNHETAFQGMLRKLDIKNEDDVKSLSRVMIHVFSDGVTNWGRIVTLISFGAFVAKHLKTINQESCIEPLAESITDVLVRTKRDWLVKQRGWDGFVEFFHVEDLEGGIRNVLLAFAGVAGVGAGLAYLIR

Row | SMILES | PARP fold [1] | percentage fluorescence polarisation inhibition, Mcl-1 FP (Mcl-1 protein) | IC50 (Mcl-1 protein; [3]) | IC50 ([2]; Homo sapiens, NCI-H929, 48 h) | IC50 (Mcl-1 protein; [4]) | IC50 [2] | IC50 (Mcl-1 protein; fluorescence polarisation test, Method 1, or Method 2 where the value is underlined (underlining not visible))
1 | CCOC(=O)[C@@H](Cc1ccccc1OCc1ccnc(-c2ccccc2OC)n1)Oc1ncnc2sc(-c3ccc(F)cc3)c(-c3ccc(OCCN4CCN(C)CC4)c(Cl)c3C)c12 [Example 639, ethyl (2R)-2-{[(5Sa)-5-{3-chloro-2-methyl-4-[2-(4-methylpiperazin-1-yl)ethoxy]phenyl}-6-(4-fluorophenyl)thieno[2,3-d]pyrimidin-4-yl]oxy}-3-(2-{[2-(2-methoxyphenyl)pyrimidin-4-yl]methoxy}phenyl)propanoate] | 195.7 fold | 66.25% @ 10 uM |  |  |  |  | 
2 | Cc1cc(-c2nccc(COc3ccccc3CC(Oc3ncnc4sc(-c5ccc(F)cc5)c(-c5ccc(OCCN6CCN(C)CC6)c(Cl)c5C)c34)C(=O)O)n2)c(C)cn1 [Example 731, (2R)-2-{[(5Sa)-5-{3-chloro-2-methyl-4-[2-(4-methylpiperazin-1-yl)ethoxy]phenyl}-6-(4-fluorophenyl)thieno[2,3-d]pyrimidin-4-yl]oxy}-3-(2-{[2-(2,5-dimethylpyridin-4-yl)pyrimidin-4-yl]methoxy}phenyl)propanoic acid] | 175.5 fold |  | 9.48e-10 M | 0.005 µM |  |  | 
3 | COc1ccc(-c2nccc(COc3ccccc3CC(Oc3ncnc4sc(-c5ccc(F)cc5)c(-c5ccc(OCCN6CCN(C)CC6)c(Cl)c5C)c34)C(=O)O)n2)c(C(F)(F)F)c1 [Example 729, (2R)-2-{[(5Sa)-5-{3-chloro-2-methyl-4-[2-(4-methylpiperazin-1-yl)ethoxy]phenyl}-6-(4-fluorophenyl)thieno[2,3-d]pyrimidin-4-yl]oxy}-3-[2-({2-[4-methoxy-2-(trifluoromethyl)phenyl]pyrimidin-4-yl}methoxy)phenyl]propanoic acid] | 221 fold |  | 1.24e-09 M | 0.009 µM |  |  | 
4 | COCCOc1ccccc1-c1nccc(COc2ccccc2CC(Oc2ncnc3sc(-c4ccc(F)cc4)c(-c4ccc(OCCN5CCN(C)CC5)c(Cl)c4C)c23)C(=O)O)n1 [Example 724, (2R)-2-{[(5Sa)-5-{3-chloro-2-methyl-4-[2-(4-methylpiperazin-1-yl)ethoxy]phenyl}-6-(4-fluorophenyl)thieno[2,3-d]pyrimidin-4-yl]oxy}-3-[2-({2-[2-(2-methoxyethoxy)phenyl]pyrimidin-4-yl}methoxy)phenyl]propanoic acid] | 188.9 fold |  | 9.48e-10 M | 0.002 µM |  |  | 
5 | Cc1c(-c2c(-c3ccc(F)cc3)sc3ncnc(OC(Cc4ccccc4OCc4ccnn4C(C)(C)C)C(=O)O)c23)ccc(OCCN(C)C)c1Cl [Example 750, (2R)-3-{2-[(1-tert-butyl-1H-pyrazol-5-yl)methoxy]phenyl}-2-{[(5Sa)-5-{3-chloro-4-[2-(dimethylamino)ethoxy]-2-methylphenyl}-6-(4-fluorophenyl)thieno[2,3-d]pyrimidin-4-yl]oxy}propanoic acid] | 181.6 fold |  | 1.33e-09 M | 0.035 µM |  |  | 
6 | CCOCc1nccc(COc2ccccc2C[C@@H](Oc2ncnc3sc(-c4ccc(F)cc4)c(-c4ccc(OCCN5CCN(C)CC5)c(Cl)c4C)c23)C(=O)O)n1 [Example 47, (2R)-2-{[(5Sa)-5-{3-chloro-2-methyl-4-[2-(4-methylpiperazin-1-yl)ethoxy]phenyl}-6-(4-fluorophenyl)thieno[2,3-d]pyrimidin-4-yl]oxy}-3-(2-{[2-(ethoxymethyl)pyrimidin-4-yl]methoxy}phenyl)propanoic acid] | 101.1 fold |  |  |  | 7.8e-09 M | 0.005 µM | 
7 | COc1ccccc1-c1nccc(COc2ccccc2CC(Oc2ncnc3sc(-c4ccc(OCc5ccccc5)cc4)c(-c4ccc(OCCN5CCN(C)CC5)c(Cl)c4C)c23)C(=O)O)n1 [Example 762, (2R)-2-[(6-[4-(benzyloxy)phenyl]-(5Sa)-5-{3-chloro-2-methyl-4-[2-(4-methylpiperazin-1-yl)ethoxy]phenyl}thieno[2,3-d]pyrimidin-4-yl)oxy]-3-(2-{[2-(2-methoxyphenyl)pyrimidin-4-yl]methoxy}phenyl)propanoic acid] | 136.9 fold |  | 1.88e-09 M | 0.014 µM |  |  | 
8 | CCOC(=O)[C@@H](Cc1ccccc1OCc1ccnn1C(C)C)Oc1ncnc2sc(-c3ccc(F)o3)c(-c3ccc(OCCN4CCN(C)CC4)c(Cl)c3C)c12 [Example 623, ethyl (2R)-2-{[(5Sa)-5-{3-chloro-2-methyl-4-[2-(4-methylpiperazin-1-yl)ethoxy]phenyl}-6-(5-fluorofuran-2-yl)thieno[2,3-d]pyrimidin-4-yl]oxy}-3-(2-{[1-(propan-2-yl)-1H-pyrazol-5-yl]methoxy}phenyl)propanoate] | 441.5 fold | 67.8% @ 10 uM |  |  |  |  | 
9 | COCCNc1nccc(COc2ccccc2CC(Oc2ncnc3sc(-c4ccc(F)cc4)c(-c4ccc(OCCN5CCN(C)CC5)c(Cl)c4C)c23)C(=O)O)n1 [Example 53, (2R)-2-{[(5Sa)-5-{3-chloro-2-methyl-4-[2-(4-methylpiperazin-1-yl)ethoxy]phenyl}-6-(4-fluorophenyl)thieno[2,3-d]pyrimidin-4-yl]oxy}-3-[2-({2-[(2-methoxyethyl)amino]pyrimidin-4-yl}methoxy)phenyl]propanoic acid] | 178.7 fold |  |  | 0.015 µM | 3.4e-09 M |  | 
10 | COc1cc(COc2ccccc2CC(Oc2ncnc3sc(-c4ccc(F)o4)c(-c4ccc(OCCN5CCN(C)CC5)c(Cl)c4C)c23)C(=O)O)ccn1 [Example 168, (2R)-2-{[(5Sa)-5-{3-chloro-2-methyl-4-[2-(4-methylpiperazin-1-yl)ethoxy]phenyl}-6-(5-fluorofuran-2-yl)thieno[2,3-d]pyrimidin-4-yl]oxy}-3-{2-[(2-methoxypyridin-4-yl)methoxy]phenyl}propanoic acid] | 179.2 fold |  |  | 0.025 µM | 2.8e-09 M |  | 
11 | COc1ccccc1-c1nccc(COc2ccccc2CC(Oc2ncnc3sc(-c4ccc(F)cc4)c(-c4ccc(OCCN5CCN(C)CC5)c(Cl)c4C)c23)C(=O)OC(C)C)n1 [Example 788, propan-2-yl (2R)-2-{[(5Sa)-5-{3-chloro-2-methyl-4-[2-(4-methylpiperazin-1-yl)ethoxy]phenyl}-6-(4-fluorophenyl)thieno[2,3-d]pyrimidin-4-yl]oxy}-3-(2-{[2-(2-methoxyphenyl)pyrimidin-4-yl]methoxy}phenyl)propanoate] | 144.8 fold |  | 6.74e-07 M | 0.494 µM |  |  | 
12 | CCOC(=O)C(Cc1ccccc1OCc1ccnn1C(C)(C)C)Oc1ncnc2sc(-c3ccc(F)cc3)c(-c3ccc(OCCN(C)C)c(Cl)c3C)c12 [Example 794, ethyl (2R)-3-{2-[(1-tert-butyl-1H-pyrazol-5-yl)methoxy]phenyl}-2-{[(5Sa)-5-{3-chloro-4-[2-(dimethylamino)ethoxy]-2-methylphenyl}-6-(4-fluorophenyl)thieno[2,3-d]pyrimidin-4-yl]oxy}propanoate] | 125.6 fold |  |  |  |  |  | 5.35e-06 M
13 | CCOC(=O)C(Cc1ccccc1OCc1ccnc(-c2ccccc2F)n1)Oc1ncnc2sc(-c3ccc(F)cc3)c(-c3ccc(OCCN4CCN(CC)CC4)c(Cl)c3C)c12 [Example 790, ethyl (2R)-2-{[(5Sa)-5-{3-chloro-4-[2-(4-ethylpiperazin-1-yl)ethoxy]-2-methylphenyl}-6-(4-fluorophenyl)thieno[2,3-d]pyrimidin-4-yl]oxy}-3-(2-{[2-(2-fluorophenyl)pyrimidin-4-yl]methoxy}phenyl)propanoate] | 282.9 fold |  | 1.91e-06 M |  |  |  | 
14 | CCOC(=O)C(Cc1ccccc1OCc1ccnc(-c2ccccc2OC)n1)Oc1ncnc2sc(-c3ccc(F)cc3)c(-c3ccc(OCCN(C)C)c(Cl)c3C)c12 [Example 756, Ethyl (2R)-2-{[(5Sa)-5-{3-chloro-4-[2-(dimethylamino)ethoxy]-2-methylphenyl}-6-(4-fluorophenyl)thieno[2,3-d]pyrimidin-4-yl]oxy}-3-(2-{[2-(2-methoxyphenyl)pyrimidin-4-yl]methoxy}phenyl)propanoate] | 117 fold |  | 6.89e-07 M |  |  |  | 
15 | CCOC(=O)[C@@H](Cc1ccccc1OCc1ccnc(OCC(F)(F)F)n1)Oc1ncnc2sc(-c3ccc(F)cc3)c(-c3ccc(OCCN4CCN(C)CC4)c(Cl)c3C)c12 [Example 638, ethyl (2R)-2-{[(5Sa)-5-{3-chloro-2-methyl-4-[2-(4-methylpiperazin-1-yl)ethoxy]phenyl}-6-(4-fluorophenyl)thieno[2,3-d]pyrimidin-4-yl]oxy}-3-(2-{[2-(2,2,2-trifluoroethoxy)pyrimidin-4-yl]methoxy}phenyl)propanoate] | 136.7 fold | 34.5% @ 10 uM |  |  |  |  | 
16 | CCCCOc1ccc(-c2c(CC)sc3ncnc(OC(Cc4ccccc4)C(=O)O)c23)c(C)c1Cl [Example 398, (2R)-2-{[(5Sa)-5-(4-butoxy-3-chloro-2-methylphenyl)-6-ethylthieno[2,3-d]pyrimidin-4-yl]oxy}-3-phenylpropanoic acid] |  |  | 1.5e-06 M | 23.8 µM |  |  | 
